From patent US20050096370A1, “Method for inhibiting tumor angiogenesis and tumor growth” (Bizbiotech Co., Ltd., priority 2003, published 2005)

Assays:
Hep3B hepatoma = Hep3B hepatoma xenograft tumor growth in nude mice; format: in vivo; details: P<0.001 versus vehicle
Procedure: Male nude mice were injected subcutaneously in the flank with 5×10^6 viable Hep3B hepatoma (A), NCI-H87 gastric carcinoma (B), SiHa cervical carcinoma (C), SK-N-MC neuroblastoma (E), or Caki-I renal carcinoma (F) cells. […] Tumor size was measured over time. […] Differences between tumor sizes in the vehicle- and YC-1-treated groups for mice with Hep3B tumors were compared using ANOVA and Duncan's multiple range tests. * denotes P<0.001 relative to the control. Differences between tumor sizes in the vehicle and YC-1-treated groups for mice with other tumors (B-E) were compared using a Mann-Whitney U test. Each number beneath the error bar represents the P value of the difference relative to the control.
Male nude (BALB/cAnNC˜-nu/nu) mice were purchased from Charles River Japan Inc. (Shin-Yokohama, JAPAN). The animals were housed in a specific pathogen-free room under controlled temperature and humidity. All animal procedures were performed according to the established procedures of the Seoul National University Laboratory Animal Maintenance Manual. Eighty mice aged 7-8 weeks were injected with tumor cells for the xenograft experiments. […]
Tumors were measured every 2 or 3 days with calipers in two dimensions and the tumor volumes were calculated using the formula: Volume=axb2/2, where a is the width at the widest point of the tumor and h is the width perpendicular to a. […]

Hep3B hepatoma tumors = test: histology and immunohistochemistry (H&E, CD31, HIF-1α) of Hep3B xenograft tumors; format: in vivo, nude mice; details: 30 μg/g daily i.p. 2 weeks
Procedure: FIG. 7 is a picture showing histopathology for Hep3B hepatoma tumors grown in nude mice. Male nude mice were injected subcutaneously in the flank with 5×10^6 viable Hep3B cells. […] After the last treatment, the mice were euthanized, the tumors removed, fixed with formalin, and embedded in paraffin. Tumor sections were cut from the paraffin blocks and stained with hernatoxylin and eosin. v, vessel; a, acinus. Scale bar=50 μm.
FIG. 8 is a picture showing vascular distribution in Hep3B hepatoma tumors grown in nude mice. Male nude mice were injected subcutaneously in the flank with 5×10^6 viable Hep3B cells. […] After the last treatment, the mice were euthanized, the tumors removed, fixed with formalin, and embedded in paraffin. Tumor sections were cut from the paraffin blocks and processed for immunohistochemical staining to detect endothelial cells with an anti-CD31 antibody. The immunostained sections were developed using the avidinbiotin-horseradish peroxidase method with diaminobenzidine as the chromagen. The sections were lightly counterstained with hematoxylin. Arrows indicate CD31-positive vessels. Scale bar=50 μm.
FIG. 9 is a picture showing expression and distribution of HIF-1α in Hep3B hepatoma tumors grown in nude mice. Male nude mice were injected subcutaneously in the flank with 5×10^6 viable Hep3B cells. […] After the last treatment, the mice were euthanized, the tumors removed, fixed with formalin, and embedded in paraffin. Tumor sections were cut from the paraffin blocks and processed for immunohistochemical staining to detect HIF-1α with an anti-HIF-1α antibody. The immunostained sections were developed using the avidin-biotin-horseradish peroxidase method with diaminobenzidine as the chromagen. The sections were lightly counterstained with hematoxylin. Arrows indicate HIF-1α positive cells. nu, nuclear staining; pn, perinuclear staining. Scale bar=50 μm. […]
Because HIF-1 is important in angiogenesis, we next assessed HIF-1α expression in tumor sections from vehicle- and YC-1-treated mice (FIG. 9).

With `OCc1ccc(-c2nn(Cc3ccccc3)c3ccccc23)o1` [YC-1, 3-(5′-hydroxymethyl-2′-furyl)-1-benzylindazole] the “tumor volume, mean, last day of experiment” value (Hep3B hepatoma; YC-1 30 μg/g daily i.p. for 2 weeks after tumors established (100-150 mm^3)) was 126 mm^3, the tumor volume, mean, last day of experiment (Hep3B hepatoma; YC-1 daily i.p. for 2 weeks, started the day after tumor cell injection) was 422 mm³ and the “CD31-immunopositive vessels in tumor sections” value (Hep3B hepatoma tumors) was “Few CD31-immunopositive vessels”. For the same compound, the “HIF-1α immunoreactive cells in tumor sections” value (Hep3B hepatoma tumors) was “no HIF-1α inimunoreactive cells” and the “hematoxylin-eosin histology of tumor sections” value (Hep3B hepatoma tumors) was “frequent acinus formation without well-developed blood vessels”.
